Assay results as given in ChEMBL document CHEMBL4257462, “Benzisoxazole: a privileged scaffold for medicinal chemistry” (Medchemcomm, 2017).
Values after ≈ are worked out from the molar mass of the structure shown.

What was measured:
[1] = tested on: Mycobacterium tuberculosis; assay: Antimycobacterial activity against Mycobacterium tuberculosis H37Rv; assay type: functional
[2] = target: 5-hydroxytryptamine receptor 2A (Rattus norvegicus, UniProt P14842); assay: Displacement of [3H]ketanserin from 5-HT2A receptor in rat frontal cortex membranes; assay type: cell membranes, Membrane
Chain of 5-hydroxytryptamine receptor 2A (P14842 whole entry): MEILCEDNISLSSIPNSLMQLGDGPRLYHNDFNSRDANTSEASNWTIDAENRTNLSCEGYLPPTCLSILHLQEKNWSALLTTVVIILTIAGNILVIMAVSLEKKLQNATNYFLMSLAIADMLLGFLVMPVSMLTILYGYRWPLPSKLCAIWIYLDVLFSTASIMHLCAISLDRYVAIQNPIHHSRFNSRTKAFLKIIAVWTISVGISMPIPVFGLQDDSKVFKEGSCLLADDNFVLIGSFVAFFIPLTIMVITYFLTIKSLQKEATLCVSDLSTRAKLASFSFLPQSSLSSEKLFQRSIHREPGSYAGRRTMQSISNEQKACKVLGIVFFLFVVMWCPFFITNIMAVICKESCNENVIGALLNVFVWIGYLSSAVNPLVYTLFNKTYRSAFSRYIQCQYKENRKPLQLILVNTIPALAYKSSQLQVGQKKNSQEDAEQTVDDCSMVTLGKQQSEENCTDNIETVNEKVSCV

D(2) dopamine receptor = D(2) dopamine receptor (Rattus norvegicus, UniProt P61169); assay: Displacement of [3H]methylspiperone from D2 receptor in rat striatal membranes; assay type: cell membranes, Striatum, Membrane
Chain of D(2) dopamine receptor (P61169 whole entry): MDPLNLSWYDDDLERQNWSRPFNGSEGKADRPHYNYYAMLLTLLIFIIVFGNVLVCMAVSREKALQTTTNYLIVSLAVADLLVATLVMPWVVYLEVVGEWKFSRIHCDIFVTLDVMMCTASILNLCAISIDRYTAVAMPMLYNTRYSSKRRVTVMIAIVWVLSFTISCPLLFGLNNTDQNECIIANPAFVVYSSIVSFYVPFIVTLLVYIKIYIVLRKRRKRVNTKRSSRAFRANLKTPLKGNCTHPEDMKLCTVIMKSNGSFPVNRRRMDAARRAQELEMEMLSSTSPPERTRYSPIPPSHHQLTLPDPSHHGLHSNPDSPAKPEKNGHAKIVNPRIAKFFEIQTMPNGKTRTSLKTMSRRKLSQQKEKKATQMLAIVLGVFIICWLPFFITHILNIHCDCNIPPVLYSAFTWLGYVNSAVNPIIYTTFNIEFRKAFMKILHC

Geotrichum candidum = assay: Antimicrobial activity against Geotrichum candidum; assay type: functional
HepG2 = assay: Growth inhibition of human HepG2 cells after 24 hrs by MTT assay relative to control; assay type: functional
Acetylcholinesterase [3] = target: Acetylcholinesterase (Electrophorus electricus, UniProt O42275); assay: Inhibition of electric eel AChE
Chain of Acetylcholinesterase (Electrophorus electricus, UniProt O42275) (O42275 whole entry): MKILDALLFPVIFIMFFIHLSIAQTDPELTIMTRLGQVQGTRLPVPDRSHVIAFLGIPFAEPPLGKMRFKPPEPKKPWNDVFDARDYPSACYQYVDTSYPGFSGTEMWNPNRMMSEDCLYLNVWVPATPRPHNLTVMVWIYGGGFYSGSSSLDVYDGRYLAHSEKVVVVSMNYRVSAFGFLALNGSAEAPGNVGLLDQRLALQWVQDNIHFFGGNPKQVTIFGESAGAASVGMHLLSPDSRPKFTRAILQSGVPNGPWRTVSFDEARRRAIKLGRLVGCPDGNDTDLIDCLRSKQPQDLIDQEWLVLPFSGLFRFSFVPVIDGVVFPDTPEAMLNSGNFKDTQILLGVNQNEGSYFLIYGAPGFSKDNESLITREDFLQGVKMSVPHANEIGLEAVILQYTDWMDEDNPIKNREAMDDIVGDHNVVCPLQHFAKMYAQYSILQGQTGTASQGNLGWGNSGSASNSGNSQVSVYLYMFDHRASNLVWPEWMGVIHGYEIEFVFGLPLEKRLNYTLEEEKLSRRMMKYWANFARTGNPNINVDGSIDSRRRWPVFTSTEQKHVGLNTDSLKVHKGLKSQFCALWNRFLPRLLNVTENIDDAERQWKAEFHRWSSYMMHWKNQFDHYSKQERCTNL

Acetylcholinesterase [4] = target: T1, Acetylcholinesterase (Rattus norvegicus, UniProt P37136); assay: Inhibition of rat brain AChE
T1 sequence (P37136 whole entry): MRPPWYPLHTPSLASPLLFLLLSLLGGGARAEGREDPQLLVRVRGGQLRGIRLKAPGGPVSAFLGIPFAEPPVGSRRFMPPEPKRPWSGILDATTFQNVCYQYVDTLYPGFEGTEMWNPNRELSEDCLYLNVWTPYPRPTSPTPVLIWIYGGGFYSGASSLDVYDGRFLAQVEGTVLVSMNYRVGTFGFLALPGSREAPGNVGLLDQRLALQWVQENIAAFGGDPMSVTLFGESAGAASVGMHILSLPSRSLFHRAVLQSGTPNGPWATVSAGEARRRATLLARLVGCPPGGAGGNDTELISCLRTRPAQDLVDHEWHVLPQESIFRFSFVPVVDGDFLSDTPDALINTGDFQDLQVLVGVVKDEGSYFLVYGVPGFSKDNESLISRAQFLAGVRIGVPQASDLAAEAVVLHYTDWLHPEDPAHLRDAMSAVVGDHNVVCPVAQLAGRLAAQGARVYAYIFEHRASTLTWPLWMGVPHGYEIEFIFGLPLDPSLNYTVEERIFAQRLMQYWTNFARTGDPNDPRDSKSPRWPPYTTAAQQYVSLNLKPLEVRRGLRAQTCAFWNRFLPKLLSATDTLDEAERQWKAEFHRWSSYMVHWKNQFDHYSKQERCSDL

Acetylcholinesterase [5] = target: Acetylcholinesterase (Homo sapiens, UniProt P22303); assay: Inhibition of human serum AChE
Chain of Acetylcholinesterase (Homo sapiens, UniProt P22303) (P22303 whole entry): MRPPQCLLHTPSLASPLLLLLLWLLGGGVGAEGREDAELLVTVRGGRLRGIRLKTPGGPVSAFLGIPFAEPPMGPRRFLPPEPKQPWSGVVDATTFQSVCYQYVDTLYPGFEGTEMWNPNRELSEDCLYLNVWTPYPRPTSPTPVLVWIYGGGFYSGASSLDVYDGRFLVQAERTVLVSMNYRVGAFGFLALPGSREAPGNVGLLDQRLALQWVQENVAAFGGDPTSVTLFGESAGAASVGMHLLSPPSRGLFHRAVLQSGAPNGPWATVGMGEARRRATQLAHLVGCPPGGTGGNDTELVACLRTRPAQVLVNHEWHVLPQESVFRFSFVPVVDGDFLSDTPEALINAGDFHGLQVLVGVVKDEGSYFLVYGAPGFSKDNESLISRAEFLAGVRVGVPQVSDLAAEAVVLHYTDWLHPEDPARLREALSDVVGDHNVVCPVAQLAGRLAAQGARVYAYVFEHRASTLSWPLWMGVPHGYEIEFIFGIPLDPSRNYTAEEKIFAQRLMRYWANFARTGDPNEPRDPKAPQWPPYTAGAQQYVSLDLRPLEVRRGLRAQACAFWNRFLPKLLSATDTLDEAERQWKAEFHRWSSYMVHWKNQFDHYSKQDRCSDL

[6] = Inhibition of urease (unknown origin)

Structure (SMILES): O=S(=O)(c1ccccc1)N1CCN(c2noc3ccccc23)CC1
- MIC [1]: 3.25 mg/L (≈ 9.46 µM)

Structure (SMILES): Cc1ccc(S(=O)(=O)N2CCN(c3noc4cccc(Cl)c34)CC2)cc1
- MIC [1]: 6.25 mg/L (≈ 15.9 µM)

Structure (SMILES): O=C1c2ccc(OCCCN3CCC(c4noc5cc(F)ccc45)CC3)cc2OCC1CO (centres undefined)
- IC50 [2]: 0.0062 µM
- IC50 (D(2) dopamine receptor): 0.017 µM

Structure (SMILES): O=C(c1ccccc1)N(C(=O)c1ccccc1)c1onc2ccccc12
- MIC (Geotrichum candidum): 584 µM (≈ 200 µg/mL)

Structure (SMILES): O=C(c1c(F)cccc1F)N1CCC(c2noc3cc(F)ccc23)CC1
- growth inhibition (GI) (HepG2): 42.06%

Structure (SMILES): Fc1ccc2c(C3CCN(CCN4CCCC4)CC3)noc2c1
- IC50 (Acetylcholinesterase [3]): 2.51 µM
- IC50 (Acetylcholinesterase [4]): 5.3 µM
- IC50 (Acetylcholinesterase [5]): 3.29 µM

Structure (SMILES): O=C(N1CCCC1)N1CCC(c2noc3cc(F)ccc23)CC1
- growth inhibition (GI) (HepG2): 39.19%

Structure (SMILES): CCCN1C(=O)C(C)c2cc(C(=O)CN3CCN(c4noc5cc(Cl)ccc45)CC3)ccc21 (centres undefined)
- MIC [1]: 3.12 mg/L (≈ 6.68 µM)

Structure (SMILES): COc1ccc(NC(=S)NC(Cc2ccccc2)C(=O)N2CCCC2C(=O)N2CCC(c3noc4cc(F)ccc34)CC2)cc1 (centres undefined)
- IC50 [6]: 4.9 µM

Structure (SMILES): O=C(c1ccccc1)c1onc2ccccc12
- MIC (Geotrichum candidum): 44.8 µM (≈ 10 µg/mL)

Structure (SMILES): Fc1ccc2c(C3CCN(CCN4CCCCC4)CC3)noc2c1
- IC50 (Acetylcholinesterase [3]): 1.5 µM
- IC50 (Acetylcholinesterase [4]): 1.29 µM
- IC50 (Acetylcholinesterase [5]): 2.22 µM

Structure (SMILES): CCCN1C(=O)Cc2cc(C(=O)CN3CCN(c4noc5ccccc45)CC3)ccc21
- MIC [1]: 3.12 mg/L (≈ 7.46 µM)

Structure (SMILES): O=C(Nc1ccccc1)c1onc2ccccc12
- MIC (Geotrichum candidum): 840 µM (≈ 200 µg/mL)

Structure (SMILES): O=C(N1CCOCC1)N1CCC(c2noc3cc(F)ccc23)CC1
- growth inhibition (GI) (HepG2): 37.75%
